From US5714666A, “Measurement of intracellular calcium using bioluminescent apoaequorin expressed in mammalian cells” (Children's Hospital of Philadelphia, priority 1995, dated 1998)

Columns and labels:
Format in all cases: cell-based
human 293 cells = assay: Aequorin expression assay in human 293 cells transfected with a single plasmid (pDPaqneo3, pDP5ht2neo3 or pDP3 vector)
Procedure: Human 293 cells were cultured on 100 mm tissue culture dish in minimum essential medium (MEM) containing 10% charcoal treated fetal bovine serum, 2 mM L-glutamine, 100 units penicillin G sodium per ml, 100 units streptomycin sulfate per ml. DNA mediated transfection was performed when these cells grew to 70% to 80% confluence on the plates. These transfected cells were incubated in 3% CO2, 37° C. incubator overnight. Cells were replenished with fresh medium and transferred to 5% CO2, 37° C. incubator the next day [C. […] (17).
Two days after the transfection, cells were washed twice with phosphate buffered saline (PBS). Cells were then harvested by ice-cold PBS and rubber policeman. After centrifugation at 1,600 r.p.m. for 5 minutes, the pellet was dissolved in Ca^++ -free AqH buffer (120 mM NaCl, 4.8 mM KCl, 1.2 mM KH2 PO4, 25 mM Hepes, 0.1% bovine serum albumin, pH 7.4) at a concentration about 10 million cells per 1 ml solution. Tubes containing cells were wrapped with aluminum foil. Coelenterazine was a generous gift from Dr. Kishi, Harvard University and Dr. Shimomura, Marine Biological Laboratory. It was stored at -70° C., dissolved in methanol immediately before use, and kept in the dark at all times. […] Aequorin was reconstituted incubating these apoaequorin cDNA transfected cells with 10 μM coelenterazine in the dark room temperature for 30 minutes. Unincorporated coelenterazine was washed away after incubation by adding 25 ml Ca^++ -free AqH buffer to each sample and centrifugating at 1,600 r.p.m. Samples were centrifuged again and pellets of 293 cells were dissolved in Ca^++ -free AqH buffer. The final concentration of cells was approximately 10 million per 1 ml solution. For light emission measurement, 100 μl of cell sample was mixed with equal volume of appropriate reagent in a 2 ml glass tube immediately before inserted into the luminometer (Berthold Biolumat LB 9500). Counting of light emission started immediately after the glass tube insertion. The number of photons emitted during the first 30 seconds was integrated by the luminometer and shown on the screen. The time course of light emission was recorded on a chart recorder and a Mackintosh computer using the MacLab Chart/4 V3.1.3 program for further analysis.

[1] = test system: mouse primary neuron culture; assay: Photon emission of primary neuron cultures from apoaequorin transgenic mice
Procedure: A transgenic mouse was mated with non-transgenic mouse B6XSJLF1 female mouse. The whole brains were removed from 19 day old mouse embryos and used to make primary neuronal cultures and incubated in minimum essential medium containing 500 μg genticin per ml. After ten days, cells were removed from plates, mixed with colenterazine and tested for aequorin expression using an expression assay.
Embryos resulting from mating transgenic mouse no.
Thereafter 10 μl (1 mg/ml PBS) Br-A23187 and 0.5 mM CaCl2 were added to the cell culture. The drug Br-A23187 opens calcium channels.

5-HT2 receptor = molecular target: T1, 5-HT2 receptor (Rattus norvegicus, UniProt P14842); assay: Aequorin light emission assay in human 293 cells co-transfected with apoaequorin cDNA and 5-HT2 cDNA; details: for Antagonist inhibition of light emission in response to serotonin: 50 μM antagonist, 30 seconds before 10 μM serotonin, FIG. 2
T1 construct: expressed in transfected cells; host or cells: human 293 cells, transiently co-transfected with pDPaqneo3 (apoaequorin) and pDP5ht2neo3
Procedure: DNA from the apoaequorin plasmid (pDPaqneo3) and the 5-HT2 plasmid (pDPSht2neo3) were mixed in equal portions in the transfection solution immediately before transfection. Transfection was performed as described in Example 2.
Two days after the transfection, cells were washed twice with phosphate buffered saline (PBS). Cells were then harvested by ice-cold PBS and rubber policeman. After centrifugation at 1,600 r.p.m. for 5 minutes, the pellet was dissolved in Ca^++ -free AqH buffer (120 mM NaCl, 4.8 mM KCl, 1.2 mM KH2 PO4, 25 mM Hepes, 0.1% bovine serum albumin, pH 7.4) at a concentration about 10 million cells per 1 ml solution. Tubes containing cells were wrapped with aluminum foil. Coelenterazine was a generous gift from Dr. Kishi, Harvard University and Dr. Shimomura, Marine Biological Laboratory. It was stored at -70° C., dissolved in methanol immediately before use, and kept in the dark at all times. The concentration of coelenterazine was estimated by the measurement of absorbance at 434 nanometer [the molar absorptivity434 =8,900 M^-1·cm^-1; K. Hori, H. Charbonneau, R. C. Hart, M. J. Cormier, Proc. Natl. Acad. Sci. U.S.A. 74, 4285 (1977)]. Aequorin was reconstituted incubating these apoaequorin cDNA transfected cells with 10 μM coelenterazine in the dark room temperature for 30 minutes. Unincorporated coelenterazine was washed away after incubation by adding 25 ml Ca^++ -free AqH buffer to each sample and centrifugating at 1,600 r.p.m. Samples were centrifuged again and pellets of 293 cells were dissolved in Ca^++ -free AqH buffer. The final concentration of cells was approximately 10 million per 1 ml solution. For light emission measurement, 100 μl of cell sample was mixed with equal volume of appropriate reagent in a 2 ml glass tube immediately before inserted into the luminometer (Berthold Biolumat LB 9500). Counting of light emission started immediately after the glass tube insertion. The number of photons emitted during the first 30 seconds was integrated by the luminometer and shown on the screen. The time course of light emission was recorded on a chart recorder and a Mackintosh computer using the MacLab Chart/4 V3.1.3 program for further analysis.
Intracellular calcium concentration was measured as described in Example 15.

T1 sequence (P14842 whole entry): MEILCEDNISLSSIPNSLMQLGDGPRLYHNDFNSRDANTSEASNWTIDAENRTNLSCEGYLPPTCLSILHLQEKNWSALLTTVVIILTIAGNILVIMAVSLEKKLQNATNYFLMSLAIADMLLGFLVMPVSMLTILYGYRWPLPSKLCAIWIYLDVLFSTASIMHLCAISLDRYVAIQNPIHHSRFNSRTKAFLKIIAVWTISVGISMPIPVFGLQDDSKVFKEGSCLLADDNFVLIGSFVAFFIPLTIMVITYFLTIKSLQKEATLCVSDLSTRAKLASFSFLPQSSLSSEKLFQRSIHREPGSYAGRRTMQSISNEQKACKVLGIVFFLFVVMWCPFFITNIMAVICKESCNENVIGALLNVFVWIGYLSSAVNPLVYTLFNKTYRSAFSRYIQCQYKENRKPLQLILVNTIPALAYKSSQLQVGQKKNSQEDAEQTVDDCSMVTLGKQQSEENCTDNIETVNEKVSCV

For [Ca+2].[Cl-].[Cl-] [Ca^++, CaCl2], the Detected photons (human 293 cells; cells transfected with pDP3 vector only, 50 nM Ca++) was 1,607 photons, the Detected photons (human 293 cells; cells transfected with pDP5ht2neo3 only, 50 nM Ca++) was 1,346 ± 167 photons and the “Photons detected upon addition of Ca++” value (human 293 cells; cells transfected with pDPaqneo3 and incubated with coelenterazine cofactor) was “rapid and dramatic increase in the photons detected”. The Detected photons (human 293 cells; cells transfected with pDPaqneo3 only, 50 nM Ca++) was 293,209 photons, the “Emission of photons upon addition of Ca++” value (human 293 cells; cells transfected with plasmids not containing apoaequorin cDNA and untransfected cells) was “no rise in the emission of photons” and the “Light emission upon addition of Ca++” value (human 293 cells; pDPaqneo3 transfected cells not incubated with coelenterazine cofactor) was “no increase of light emission”. The “Photon emission (excitotoxicity)” value ([1]; 100 μl of 100 mM CaCl2, control non-transgenic neuronal culture no. 6, FIG. 5B) was “no excitotoxic effect” and the “Photon emission (excitotoxicity)” value ([1]; 100 μl of 100 mM CaCl2, culture from transgenic mouse no. 2, FIG. 5A) was “increase in cell excitotoxicity”.
O=C(O)CN(CCN(CC(=O)O)CC(=O)O)CC(=O)O [EDTA] was tested, and the “Effect on Ca++ induced photon emission” value (human 293 cells; EDTA added to buffer, pDPaqneo3-transfected cells (data not shown)) was “prevented the increase in photon emission”.
For CN(C)CCCSc1ccccc1NC(=O)/C=C/c1ccccc1 [cinanserin], the “Antagonist inhibition of light emission in response to serotonin” value (5-HT2 receptor) was “inhibited”.
With O=C(c1ccc(F)cc1)C1CCN(CCn2c(=O)[nH]c3ccccc3c2=O)CC1 [ketanserin] the “Antagonist inhibition of light emission in response to serotonin” value (5-HT2 receptor) was “inhibited”.
NCCc1c[nH]c2ccc(O)cc12 [serotonin] was tested, and the Detected photons (human 293 cells; cells transfected with pDP3 vector only, 500 nM) was 1,599 photons, the Detected photons (human 293 cells; cells transfected with pDP5ht2neo3 only, 500 nM) was 1,308 ± 339 photons and the “Photon emission upon serotonin treatment” value (human 293 cells; cells transfected with pDPaqneo3 only, pDP5ht2neo3 only or pDP3 vector only) was “no increase of photo emission”. For the same molecule, the Detected photons (human 293 cells; cells transfected with pDPaqneo3 only, 500 nM) was 6,150 photons, the “Photon emission upon addition of serotonin” value (5-HT2 receptor; cells co-transfected with pDPaqneo3 and pDP5ht2neo3) was “dramatic rise in photon emission” and the Detected photons (5-HT2 receptor; cells transfected with pDPaqneo3 & pDP5ht2neo3, 500 nM, first 30 seconds) was 79,840 ± 3,342 photons. The “Photon emissions per cell” value (5-HT2 receptor; saturating concentration (500 μM)) was no more than 40 photons per cell.
For Br-A23187, the “Photon emission (excitotoxicity)” value ([1]; 10 μl (1 mg/ml PBS) Br-A23187 with 0.5 mM CaCl2, culture from transgenic mouse no. 20, FIG. 6A) was “increased excitotoxicity” and the “Photon emission (excitotoxicity)” value ([1]; Br-A23187 with 0.5 mM CaCl2 and 50 mM EGTA, culture from transgenic mouse no. 20, FIG. 6B) was “increased excitotoxicity”.
